Values after ≈ are worked out from the molar mass of the structure shown.
Target: T1, Bifunctional epoxide hydrolase 2 (Homo sapiens, UniProt P34913)
T1 sequence (P34913 whole entry): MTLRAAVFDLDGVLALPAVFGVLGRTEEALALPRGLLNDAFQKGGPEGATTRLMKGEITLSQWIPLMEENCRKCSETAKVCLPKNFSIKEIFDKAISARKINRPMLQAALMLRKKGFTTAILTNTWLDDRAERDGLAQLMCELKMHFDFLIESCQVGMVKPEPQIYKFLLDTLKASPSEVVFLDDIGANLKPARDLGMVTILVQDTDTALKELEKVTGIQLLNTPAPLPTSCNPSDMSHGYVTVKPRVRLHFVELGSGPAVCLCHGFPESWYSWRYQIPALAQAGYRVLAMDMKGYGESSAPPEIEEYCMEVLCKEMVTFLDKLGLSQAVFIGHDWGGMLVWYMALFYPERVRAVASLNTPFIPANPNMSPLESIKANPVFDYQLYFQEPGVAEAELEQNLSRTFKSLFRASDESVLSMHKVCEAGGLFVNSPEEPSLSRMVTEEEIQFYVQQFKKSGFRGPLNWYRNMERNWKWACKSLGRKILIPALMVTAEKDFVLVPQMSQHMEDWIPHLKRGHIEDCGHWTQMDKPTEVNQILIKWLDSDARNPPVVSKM
Assay: not given
Conditions: not given

Row | Compound | IC50 [nM]
1 | O=C(Nc1ccon1)NC12CC3CC(CC(C3)C1)C2 | 46
2 | Cc1ccnc(NS(=O)(=O)c2ccc(NC(=O)NC34CC5CC(CC(C5)C3)C4)cc2)n1 | 17
3 | O=C(Nc1nccnn1)NC12CC3CC(CC(C3)C1)C2 | 1010
4 | O=C(Nc1nnc(C2CCC2)o1)NC12CC3CC(CC(C3)C1)C2 | 241

Test system: not given
Assay: not given
Conditions: buffer, 18 h, pH 7.4

Row | Compound | solubility [µg/mL]
5 | O=C(Nc1ccon1)NC12CC3CC(CC(C3)C1)C2 | 20.3 (≈ 77.7 µM)
6 | Cc1ccnc(NS(=O)(=O)c2ccc(NC(=O)NC34CC5CC(CC(C5)C3)C4)cc2)n1 | 2.5 (≈ 5.66 µM)
7 | O=C(Nc1nccnn1)NC12CC3CC(CC(C3)C1)C2 | 6.8 (≈ 24.9 µM)
8 | O=C(Nc1nnc(C2CCC2)o1)NC12CC3CC(CC(C3)C1)C2 | 10.5 (≈ 33.2 µM)

Test system: Pseudomonas aeruginosa
Assay: microbe, parasite or virus in culture
Conditions: not given

Row | Compound | MIC [µg/mL]
9 | O=C(Nc1ccon1)NC12CC3CC(CC(C3)C1)C2 | > 200
10 | Cc1ccnc(NS(=O)(=O)c2ccc(NC(=O)NC34CC5CC(CC(C5)C3)C4)cc2)n1 | > 200
11 | O=C(Nc1nccnn1)NC12CC3CC(CC(C3)C1)C2 | > 200
12 | O=C(Nc1nnc(C2CCC2)o1)NC12CC3CC(CC(C3)C1)C2 | > 200

Test system: Proteus vulgaris
Assay: microbe, parasite or virus in culture
Conditions: not given

Row | Compound | MIC [µg/mL]
13 | O=C(Nc1ccon1)NC12CC3CC(CC(C3)C1)C2 | > 200
14 | Cc1ccnc(NS(=O)(=O)c2ccc(NC(=O)NC34CC5CC(CC(C5)C3)C4)cc2)n1 | > 200
15 | O=C(Nc1nccnn1)NC12CC3CC(CC(C3)C1)C2 | > 200
16 | O=C(Nc1nnc(C2CCC2)o1)NC12CC3CC(CC(C3)C1)C2 | > 200

Test system: Proteus mirabilis
Assay: microbe, parasite or virus in culture
Conditions: not given

Row | Compound | MIC [µg/mL]
17 | O=C(Nc1ccon1)NC12CC3CC(CC(C3)C1)C2 | > 200
18 | Cc1ccnc(NS(=O)(=O)c2ccc(NC(=O)NC34CC5CC(CC(C5)C3)C4)cc2)n1 | > 200
19 | O=C(Nc1nccnn1)NC12CC3CC(CC(C3)C1)C2 | > 200
20 | O=C(Nc1nnc(C2CCC2)o1)NC12CC3CC(CC(C3)C1)C2 | > 200

Test system: Klebsiella pneumoniae
Assay: microbe, parasite or virus in culture
Conditions: not given

Row | Compound | MIC [µg/mL]
21 | O=C(Nc1ccon1)NC12CC3CC(CC(C3)C1)C2 | > 200
22 | Cc1ccnc(NS(=O)(=O)c2ccc(NC(=O)NC34CC5CC(CC(C5)C3)C4)cc2)n1 | > 200
23 | O=C(Nc1nccnn1)NC12CC3CC(CC(C3)C1)C2 | > 200
24 | O=C(Nc1nnc(C2CCC2)o1)NC12CC3CC(CC(C3)C1)C2 | > 200

Test system: Escherichia coli
Assay: microbe, parasite or virus in culture
Conditions: K-12

Row | Compound | MIC [µg/mL]
25 | O=C(Nc1ccon1)NC12CC3CC(CC(C3)C1)C2 | > 200
26 | Cc1ccnc(NS(=O)(=O)c2ccc(NC(=O)NC34CC5CC(CC(C5)C3)C4)cc2)n1 | > 200
27 | O=C(Nc1nccnn1)NC12CC3CC(CC(C3)C1)C2 | > 200
28 | O=C(Nc1nnc(C2CCC2)o1)NC12CC3CC(CC(C3)C1)C2 | > 200

Test system: Burkholderia cepacia
Assay: microbe, parasite or virus in culture
Conditions: not given

Row | Compound | MIC [µg/mL]
29 | O=C(Nc1ccon1)NC12CC3CC(CC(C3)C1)C2 | 100 (≈ 383 µM)
30 | Cc1ccnc(NS(=O)(=O)c2ccc(NC(=O)NC34CC5CC(CC(C5)C3)C4)cc2)n1 | > 200
31 | O=C(Nc1nccnn1)NC12CC3CC(CC(C3)C1)C2 | > 200
32 | O=C(Nc1nnc(C2CCC2)o1)NC12CC3CC(CC(C3)C1)C2 | > 200

Test system: Bacillus subtilis
Assay: microbe, parasite or virus in culture
Conditions: not given

Row | Compound | MIC [µg/mL]
33 | O=C(Nc1ccon1)NC12CC3CC(CC(C3)C1)C2 | > 200
34 | Cc1ccnc(NS(=O)(=O)c2ccc(NC(=O)NC34CC5CC(CC(C5)C3)C4)cc2)n1 | > 200
35 | O=C(Nc1nccnn1)NC12CC3CC(CC(C3)C1)C2 | > 200
36 | O=C(Nc1nnc(C2CCC2)o1)NC12CC3CC(CC(C3)C1)C2 | 50 (≈ 158 µM)

Test system: Acinetobacter
Assay: microbe, parasite or virus in culture
Conditions: not given

Row | Compound | MIC [µg/mL]
37 | O=C(Nc1ccon1)NC12CC3CC(CC(C3)C1)C2 | > 200
38 | Cc1ccnc(NS(=O)(=O)c2ccc(NC(=O)NC34CC5CC(CC(C5)C3)C4)cc2)n1 | 100 (≈ 226 µM)
39 | O=C(Nc1nccnn1)NC12CC3CC(CC(C3)C1)C2 | > 200
40 | O=C(Nc1nnc(C2CCC2)o1)NC12CC3CC(CC(C3)C1)C2 | > 200

Test system: Streptococcus pneumoniae
Assay: microbe, parasite or virus in culture
Conditions: not given

Row | Compound | MIC [µg/mL]
41 | O=C(Nc1ccon1)NC12CC3CC(CC(C3)C1)C2 | > 200
42 | Cc1ccnc(NS(=O)(=O)c2ccc(NC(=O)NC34CC5CC(CC(C5)C3)C4)cc2)n1 | > 200
43 | O=C(Nc1nccnn1)NC12CC3CC(CC(C3)C1)C2 | > 200
44 | O=C(Nc1nnc(C2CCC2)o1)NC12CC3CC(CC(C3)C1)C2 | 100 (≈ 316 µM)

Test system: Streptococcus pyogenes
Assay: microbe, parasite or virus in culture
Conditions: not given

Row | Compound | MIC [µg/mL]
45 | O=C(Nc1ccon1)NC12CC3CC(CC(C3)C1)C2 | > 200
46 | Cc1ccnc(NS(=O)(=O)c2ccc(NC(=O)NC34CC5CC(CC(C5)C3)C4)cc2)n1 | > 200
47 | O=C(Nc1nccnn1)NC12CC3CC(CC(C3)C1)C2 | > 200
48 | O=C(Nc1nnc(C2CCC2)o1)NC12CC3CC(CC(C3)C1)C2 | 100 (≈ 316 µM)

Test system: Staphylococcus aureus
Assay: microbe, parasite or virus in culture
Conditions: NRS70

Row | Compound | MIC [µg/mL]
49 | O=C(Nc1ccon1)NC12CC3CC(CC(C3)C1)C2 | > 200
50 | Cc1ccnc(NS(=O)(=O)c2ccc(NC(=O)NC34CC5CC(CC(C5)C3)C4)cc2)n1 | > 200
51 | O=C(Nc1nccnn1)NC12CC3CC(CC(C3)C1)C2 | > 200
52 | O=C(Nc1nnc(C2CCC2)o1)NC12CC3CC(CC(C3)C1)C2 | 50 (≈ 158 µM)

Test system: Staphylococcus aureus
Assay: microbe, parasite or virus in culture
Conditions: ATCC 29213

Row | Compound | MIC [µg/mL]
53 | O=C(Nc1ccon1)NC12CC3CC(CC(C3)C1)C2 | > 200
54 | Cc1ccnc(NS(=O)(=O)c2ccc(NC(=O)NC34CC5CC(CC(C5)C3)C4)cc2)n1 | > 200
55 | O=C(Nc1nccnn1)NC12CC3CC(CC(C3)C1)C2 | > 200
56 | O=C(Nc1nnc(C2CCC2)o1)NC12CC3CC(CC(C3)C1)C2 | 50 (≈ 158 µM)

Test system: Enterococcus faecalis
Assay: microbe, parasite or virus in culture
Conditions: not given

Row | Compound | MIC [µg/mL]
57 | O=C(Nc1ccon1)NC12CC3CC(CC(C3)C1)C2 | 100 (≈ 383 µM)
58 | Cc1ccnc(NS(=O)(=O)c2ccc(NC(=O)NC34CC5CC(CC(C5)C3)C4)cc2)n1 | > 200
59 | O=C(Nc1nccnn1)NC12CC3CC(CC(C3)C1)C2 | > 200
60 | O=C(Nc1nnc(C2CCC2)o1)NC12CC3CC(CC(C3)C1)C2 | 100 (≈ 316 µM)

Test system: Bacillus anthracis
Assay: microbe, parasite or virus in culture
Conditions: Sterne

Row | Compound | MIC [µg/mL]
61 | O=C(Nc1ccon1)NC12CC3CC(CC(C3)C1)C2 | > 200
62 | Cc1ccnc(NS(=O)(=O)c2ccc(NC(=O)NC34CC5CC(CC(C5)C3)C4)cc2)n1 | 100 (≈ 226 µM)
63 | O=C(Nc1nccnn1)NC12CC3CC(CC(C3)C1)C2 | > 200
64 | O=C(Nc1nnc(C2CCC2)o1)NC12CC3CC(CC(C3)C1)C2 | 25 (≈ 79 µM)

Test system: Mycobacterium tuberculosis
Assay: microbe, parasite or virus in culture
Conditions: H37Rv, 168 h

Row | Compound | MIC [µg/mL]
65 | O=C(Nc1ccon1)NC12CC3CC(CC(C3)C1)C2 | 50 (≈ 191 µM)
66 | Cc1ccnc(NS(=O)(=O)c2ccc(NC(=O)NC34CC5CC(CC(C5)C3)C4)cc2)n1 | > 25
67 | O=C(Nc1nccnn1)NC12CC3CC(CC(C3)C1)C2 | 200 (≈ 732 µM)
68 | O=C(Nc1nnc(C2CCC2)o1)NC12CC3CC(CC(C3)C1)C2 | 12.5 (≈ 39.5 µM)
